Data on 35 compounds can be found in US8993622B2, “Antiviral compounds” (Eirium AB, priority 2010, dated 2015).

One series relates to Ad5. In words: microbe, parasite or virus in culture. It is filed as cell-based, human adenovirus. As to conditions: for inhibition at 5 µM: A549, read-out: % Inh. at 5 μM; for inhibition at 20 µM: A549, read-out: % Inh. at 20 μM; for EC50: A549; for effect on the replication of Ad5 (QPCR): A549 cells; for Inh. (% inhibition of Ad5 at 15 μM): Ad5, 15 μM (Table 2).
In the next series the test system is cells. In words: Cellular toxicity of select compounds (% dead cells, CC50). Conditions: 24 h. It is filed as cell-based.
Setting [1] is: unidentified adenovirus, A549, read-out: % Inh. at 15 μM.
Setting [2] is: Human adenovirus sp., A549, read-out: Inh. (% inhibition of Ad5 at 15 μM).

Where two headings read alike, the source gives them in different places.

Regarding `CC(=O)Nc1ccccc1C(=O)Nc1ccccc1C(=O)O` [Compound 17a, 2-[2-(Acetylamino)benzoylamino]benzoic acid], the inhibition at 5 µM with Ad5 (unidentified adenovirus) worked out at 4 ± 11%. Further, in the series with Ad5 (setting [1]), the inhibition at 15 µM was determined as 24 ± 14%.

On to `Cc1ccc(C(=O)Nc2ccccc2C(=O)Nc2ccccc2C(=O)O)cc1` [Compound 12c, 2-[[2-(4-Methyl-benzoylamino)benzoyl]amino]-benzoic acid], for which, in the series on Ad5 (Human adenovirus sp.), the inhibition at 5 µM stood at 89.2% and the inhibition at 20 µM amounted to 98.5%.

As a reminder, the EC50 is the concentration giving half of the maximal effect. For `COc1ccc(NC(=O)c2ccccc2F)c(C(=O)Nc2ccccc2C(=O)O)c1` [Compound 35i, 2-[5-methoxy-2-(2-fluorobenzoylamino)-benzoylamino]benzoic acid], in the series on Ad5 (unidentified adenovirus), the EC50 amounted to 1400 nM and the inhibition at 5 µM was found to be 91 ± 6%. The inhibition at 15 µM with Ad5 (setting [1]) was 97 ± 1%. Besides, in the series on cells, the “Toxicity at 30 μM (% dead cells after 24 h)” value is 18 ± 12% and the “Toxicity at 60 μM (% dead cells after 24 h)” value came out at 28 ± 12%.

Take `O=C(Nc1ccccc1C(=O)O)c1ccccc1` [Compound A01, reference compound]: the “effect on the replication of Ad5 (QPCR)” value in the series on Ad5 was “Neither the smaller (A01) nor the larger (A03) molecule showed any anti-adenoviral effect”.

Turning to `CCOC(=O)c1ccc(NC(=O)c2ccccc2NC(=O)c2ccccc2)cc1` [Compound 7b, Ethyl 4-[(2-benzoylamino)benzoylamino]-benzoate], the “Inh. (% inhibition of Ad5 at 15 μM)” value in the series on Ad5 amounted to 8%.

Take `Cc1ccc(S(=O)(=O)Nc2ccccc2C(=O)Nc2ccccc2C(=O)O)cc1` [Compound 17c, 2-[2-(p-Toluenesulfonylamino)benzoylamino]benzoic acid]: the inhibition at 5 µM in the series with Ad5 (unidentified adenovirus) came to 2 ± 24%. The inhibition at 15 µM with Ad5 (setting [1]) stood at 8 ± 35%.

With `O=C(Nc1cc(Cl)ccc1C(=O)Nc1ccccc1C(=O)O)c1ccccc1F` [Compound 35f, 2-[4-chloro-2-(2-fluorobenzoylamino)-benzoylamino]benzoic acid], in the series on Ad5 (unidentified adenovirus), it took 4140 nM to reach a half-maximal effect (EC50) and the inhibition at 5 µM came out at 57 ± 5%. The inhibition at 15 µM in the series with Ad5 (setting [1]) amounted to 78 ± 2%. In the series on cells, the “Toxicity at 30 μM (% dead cells after 24 h)” value worked out at 14 ± 5% and the “Toxicity at 60 μM (% dead cells after 24 h)” value came to 25 ± 8%.

Take `O=C(O)c1cccc(NC(=O)c2ccccc2NC(=O)c2ccccc2)c1` [Compound 8a, 3-[(2-benzoylamino)benzoylamino]-benzoic acid]: in the series with Ad5, the “Inh. (% inhibition of Ad5 at 15 μM)” value is recorded as 8%.

As for `CCOC(=O)c1ccccc1NC(=O)c1cccc(NC(=O)c2ccccc2)c1` [Compound 7c, Ethyl 2-[(3-benzoylamino)benzoylamino]-benzoate], the “Inh. (% inhibition of Ad5 at 15 μM)” value in the series on Ad5 is on record as 25%.

Turning to `O=C(Nc1ccc(Cl)cc1C(=O)Nc1ccccc1C(=O)O)c1ccccc1F` [Compound 35g, 2-[5-chloro-2-(2-fluorobenzoylamino)-benzoylamino]benzoic acid], in the series on Ad5 (unidentified adenovirus), the EC50 amounted to 680 nM and the inhibition at 5 µM was 89 ± 2%. Further, the inhibition at 15 µM in the series with Ad5 (setting [1]) came to 91 ± 2%. For the same compound, in the series on cells, the “Toxicity at 30 μM (% dead cells after 24 h)” value was 11 ± 7% and the “Toxicity at 60 μM (% dead cells after 24 h)” value amounted to 24 ± 9%.

Regarding `O=C(Nc1ccc(C(=O)Nc2ccccc2C(=O)O)cc1)c1ccccc1` [Compound 8d, 2-[(4-benzoylamino)benzoylamino]-benzoic acid], the inhibition at 15 µM in the series with Ad5 (setting [2]) amounted to 47%.

Consider `O=C(O)CCC(=O)Nc1ccccc1C(=O)Nc1ccccc1C(=O)O` [Compound 17f, 2-[2-(4-Carboxybutanoylamido)benzoyl]aminobenzoic acid], for which the inhibition at 5 µM in the series on Ad5 (unidentified adenovirus) was 0%. For the same compound, the inhibition at 15 µM in the series on Ad5 (setting [1]) worked out at 0%.

`O=C(O)Cc1ccccc1NC(=O)c1ccccc1NC(=O)c1ccccc1` [Compound 23, 2-[2-(benzoylamino)benzoylamino]phenylacetic acid]: in the series with Ad5 (unidentified adenovirus), the inhibition at 5 µM turned out to be 0%. Also, the inhibition at 15 µM with Ad5 (setting [1]) came out at 0%.

Take `O=C(O)c1ccc(NC(=O)c2ccccc2NC(=O)c2ccccc2)cc1` [Compound 8b, 4-[(2-benzoylamino)benzoylamino]-benzoic acid]: the “Inh. (% inhibition of Ad5 at 15 μM)” value in the series on Ad5 turned out to be 8%.

Take `O=C(Nc1ccccc1C(=O)Nc1ccccc1C(=O)O)c1ccc(F)cc1` [Compound 17j, 2-[2-(4-Fluorobenzoylamino)-benzoylamino]benzoic acid]: in the series with Ad5 (unidentified adenovirus), the EC50 came out at 3500 nM and the inhibition at 5 µM worked out at 76 ± 10%. In addition, the inhibition at 15 µM in the series on Ad5 (setting [1]) worked out at 95 ± 1%. For the same compound, in the series with cells, the “Toxicity at 30 μM (% dead cells after 24 h)” value was determined as 14 ± 10% and the “Toxicity at 60 μM (% dead cells after 24 h)” value was found to be 10 ± 10%.

Regarding `O=C(Nc1cccc(C(=O)Nc2ccccc2C(=O)O)c1)c1ccccc1` [Compound 8c, 2-[(3-benzoylamino)benzoylamino]-benzoic acid], the “Inh. (% inhibition of Ad5 at 15 μM)” value with Ad5 is on record as 39%.

Consider `COc1ccc(NC(=O)c2ccccc2NC(=O)c2ccccc2F)c(C(=O)O)c1` [Compound 35d, 2-[2-(2-fluorobenzoylamino)-benzoylamino]-5-methoxybenzoic acid], for which the inhibition at 5 µM in the series on Ad5 (unidentified adenovirus) was 28 ± 20%. The inhibition at 15 µM with Ad5 (setting [1]) amounted to 78 ± 3%.

As to `O=C(Cc1ccccc1)Nc1ccccc1C(=O)Nc1ccccc1C(=O)O` [Compound 17k, 2-[2-(Phenylacetylamino)benzoylamino]benzoic acid], the inhibition at 5 µM in the series on Ad5 (unidentified adenovirus) amounted to 32 ± 19%. Moreover, the inhibition at 15 µM in the series on Ad5 (setting [1]) was determined as 21 ± 12%.

In the case of `CCOC(=O)c1ccccc1NC(=O)c1ccc(NC(=O)c2ccccc2)cc1` [Compound 7d, Ethyl 2-[(4-benzoylamino)benzoylamino]-benzoate], in the series on Ad5, the “Inh. (% inhibition of Ad5 at 15 μM)” value amounted to 15%.

`O=C(Nc1ccccc1C(=O)Nc1ccccc1C(=O)O)c1cccc(F)c1` [Compound 17i, 2-[2-(3-Fluorobenzoylamino)-benzoylamino]benzoic acid]: the inhibition at 5 µM with Ad5 (unidentified adenovirus) came out at 41 ± 32%. In addition, the inhibition at 15 µM in the series with Ad5 (setting [1]) came to 0%.

With `O=C(Nc1ccccc1C(=O)Nc1ccc(Cl)cc1C(=O)O)c1ccccc1F` [Compound 35b, 2-[2-(2-fluorobenzoylamino)benzoylamino]-5-chlorobenzoic acid], in the series on Ad5 (unidentified adenovirus), the inhibition at 5 µM was determined as 0%. Also, the inhibition at 15 µM in the series on Ad5 (setting [1]) stood at 0%.

For `CCOC(=O)c1cccc(NC(=O)c2ccccc2NC(=O)c2ccccc2)c1` [Compound 7a, 4-Ethyl 3-[(2-benzoylamino)benzoylamino]-benzoate], in the series with Ad5 (setting [2]), the inhibition at 15 µM turned out to be 0%.

In the case of `CS(=O)(=O)Nc1ccccc1C(=O)Nc1ccccc1C(=O)O` [Compound 17b, 2-[2-(Methanesulfonylamino)benzoylamino]benzoic acid], the inhibition at 5 µM in the series with Ad5 (unidentified adenovirus) stood at 0%. In addition, in the series with Ad5 (setting [1]), the inhibition at 15 µM worked out at 23 ± 12%.

Regarding `O=C(Nc1ccccc1C(=O)Nc1ccccc1C(=O)Nc1ccccc1C(=O)O)c1ccccc1` [Compound A03, reference compound], the “effect on the replication of Ad5 (QPCR)” value in the series on Ad5 is listed as “Neither the smaller (A01) nor the larger (A03) molecule showed any anti-adenoviral effect”.

On to `COc1ccc(C(=O)Nc2ccccc2C(=O)Nc2ccccc2C(=O)O)cc1` [Compound 12f, 2-[[2-(4-Methoxy-benzoylamino)benzoyl]amino]-benzoic acid], for which, in the series with Ad5 (Human adenovirus sp.), the inhibition at 5 µM was 25.2% and the inhibition at 20 µM was determined as 96.5%.

As for `O=C(Nc1ccccc1C(=O)Nc1ccccc1)c1ccccc1` [Compound 11, 2-Benzoylamino-N-phenyl-benzamide], in the series on Ad5 (setting [2]), the inhibition at 15 µM is 18%.

With `Cc1ccc(C(=O)Nc2ccccc2C(=O)Nc2ccccc2C)cc1` [Compound 12g, 4-Methyl-N-{2-[(2-methylphenyl)carbamoyl]phenyl}-benzamide], in the series on Ad5 (Human adenovirus sp.), the inhibition at 5 µM worked out at 24.5% and the inhibition at 20 µM is 22.2%.

On to `O=C(O)c1ccccc1NC(=O)c1ccccc1NC(=O)C1CCCCC1` [Compound 17e, 2-[[2-(Cyclohexanecarboxylamino)benzoyl]amino]benzoic acid], for which the “activity compared with A02 (inhibition of adenovirus replication)” value in the series with Ad5 (second generation inhibitors, Table 4) is recorded as “diminished but not abolished activity”. The inhibition at 5 µM in the series on Ad5 (unidentified adenovirus) was 20 ± 1%. Besides, in the series on Ad5 (setting [1]), the inhibition at 15 µM is 55 ± 11%.

`CC(C)(C)C(=O)Nc1ccccc1C(=O)Nc1ccccc1C(=O)O` [Compound 17d, 2-[2-(Trimethylacetylamino)benzoylamino]benzoic acid]: in the series on Ad5 (unidentified adenovirus), the inhibition at 5 µM worked out at 45 ± 7%. Besides, the inhibition at 15 µM with Ad5 (setting [1]) turned out to be 52 ± 18%.

With `NC(=O)c1ccccc1NC(=O)c1cccc(NC(=O)c2ccccc2)c1` [Compound 12d, 2-[[3-(Benzoylamino)benzoyl]amino]-benzamide], in the series on Ad5 (Human adenovirus sp.), the inhibition at 5 µM was 51.1% and the inhibition at 20 µM was found to be 44.2%.

As to `COc1ccc(C(=O)O)c(NC(=O)c2ccccc2NC(=O)c2ccccc2F)c1` [Compound 35c, 2-[2-(2-fluorobenzoylamino)-benzoylamino]-4-methoxybenzoic acid], in the series with Ad5 (unidentified adenovirus), the inhibition at 5 µM was 79 ± 21%. For the same compound, in the series on Ad5 (setting [1]), the inhibition at 15 µM turned out to be 95 ± 22%.

For `O=C(Nc1ccccc1C(=O)Nc1cc(F)c(F)cc1C(=O)O)c1ccccc1F` [Compound 35e, 2-[2-(2-fluorobenzoylamino)-benzoylamino]-4,5-difluorobenzoic acid], in the series on Ad5 (unidentified adenovirus), the inhibition at 5 µM was 0%. Further, the inhibition at 15 µM with Ad5 (setting [1]) came to 0%.

On to `O=C(Cc1ccccc1NC(=O)c1ccccc1)Nc1ccccc1C(=O)O` [Compound 28, 2-[2-(benzoylamino)phenylacetylamino]benzoic acid], for which, in the series with Ad5 (unidentified adenovirus), the inhibition at 5 µM stood at 0%. Moreover, the inhibition at 15 µM with Ad5 (setting [1]) turned out to be 0%.

With `O=C(Nc1ccccc1C(=O)Nc1cc(Cl)ccc1C(=O)O)c1ccccc1F` [Compound 35a, 2-[2-(2-fluorobenzoylamino)-benzoylamino]-4-chlorobenzoic acid], in the series with Ad5 (unidentified adenovirus), the inhibition at 5 µM came to 0%. Also, the inhibition at 15 µM in the series with Ad5 (setting [1]) was 61%.

With `Cc1ccccc1C(=O)Nc1cccc(C(=O)Nc2ccccc2C(=O)O)c1` [Compound 12e, 2-[[3-(2-Methyl-benzoylamino)benzoyl]amino]-benzoic acid], in the series on Ad5 (Human adenovirus sp.), the inhibition at 5 µM stood at 44% and the inhibition at 20 µM is 55.8%.
